ChEMBL document CHEMBL3739261, “Synthesis and antibacterial activity evaluation of C-5 side chain modified analogues of FYL-66, a potential agent against methicillin-resistant Staphylococcus aureus” (Medchemcomm, 2015)
In brackets after ≈: the same amount, converted by molar mass.

Tests used:
[1] = system: Staphylococcus aureus; experiment: Antibacterial activity against methicillin-susceptible Staphylococcus aureus ATCC 25923 incubated for 18 hrs by broth microdilution method; type: functional; settings: ATCC 25923, 18 h
[2] = system: Staphylococcus aureus; experiment: Antibacterial activity against methicillin-susceptible Staphylococcus aureus CMCC 2603 incubated for 18 hrs by broth microdilution method; type: functional; settings: CMCC 2603, 18 h
[3] = system: Staphylococcus aureus; experiment: Antibacterial activity against methicillin-susceptible Staphylococcus aureus ATCC 29213 incubated for 18 hrs by broth microdilution method; type: functional; settings: ATCC 29213, 18 h
[4] = system: Staphylococcus aureus; experiment: Antibacterial activity against methicillin-susceptible Staphylococcus aureus ATCC 6538 incubated for 18 hrs by broth microdilution method; type: functional; settings: ATCC 6538, 18 h
[5] = system: Staphylococcus aureus; experiment: Antibacterial activity against methicillin-resistant Staphylococcus aureus ATCC 33591 incubated for 18 hrs by broth microdilution method; type: functional; settings: ATCC 33591, 18 h
[6] = system: Staphylococcus aureus; experiment: Antibacterial activity against methicillin-resistant Staphylococcus aureus ATCC 43300 incubated for 18 hrs by broth microdilution method; type: functional; settings: ATCC 43300, 18 h
[7] = system: Escherichia coli; experiment: Antibacterial activity against Escherichia coli ATCC 25922 incubated for 18 hrs by broth microdilution method; type: functional; settings: ATCC 25922, 18 h
[8] = system: Pseudomonas aeruginosa; experiment: Antibacterial activity against Pseudomonas aeruginosa ATCC 27853 incubated for 18 hrs by broth microdilution method; type: functional; settings: ATCC 27853, 18 h
[9] = Cytotoxicity against HEK293A cells after 48 hrs by MTT assay; type: cell-based; settings: Homo sapiens, HEK293-A
[10] = Cytotoxicity against human L02 cells after 48 hrs by MTT assay; type: cell-based; settings: L02, 48 h
[11] = Solubility of compound in distilled water after 24 hrs by HPLC analysis; type: physicochemical
[12] = Octanol/water partition coefficient, log P of the compound by HPLC assay; type: physicochemical

| Compound | MIC [1] [µg/mL] | MIC [2] [µg/mL] | MIC [3] [µg/mL] | MIC [4] [µg/mL] | MIC [5] [µg/mL] | MIC [6] [µg/mL] | MIC [7] [µg/mL] | MIC [8] [µg/mL] | IC50 [9] [µg/mL] | IC50 [10] [µg/mL] | solubility at 24 h [11] [µM] | logP [12] |
| --- | --- | --- | --- | --- | --- | --- | --- | --- | --- | --- | --- | --- |
| CCC(=O)NC[C@H]1CN(c2ccc(-n3cc(-c4ccccn4)cn3)c(F)c2)C(=O)O1 | 4 (≈ 9.77 µM) | 4 (≈ 9.77 µM) | 4 (≈ 9.77 µM) | 4 (≈ 9.77 µM) | 4 (≈ 9.77 µM) | 4 (≈ 9.77 µM) | > 32 | > 32 | 389 (≈ 950 µM) | 204 (≈ 498 µM) | 147 (≈ 60 µg/mL) | 2.2 |
| O=C1CNC(=O)N1C[C@H]1CN(c2ccc(-n3cc(-c4ccccn4)cn3)c(F)c2)C(=O)O1 | > 32 | > 32 | > 32 | > 32 | > 32 | > 32 | > 32 | > 32 | > 400 | > 400 | 1630 (≈ 713 µg/mL) | 1.25 |
| O=C1O[C@@H](CO)CN1c1ccc(-n2cc(-c3ccccn3)cn2)c(F)c1 | – | – | – | – | – | – | – | – | > 400 | 59 (≈ 167 µM) | 56.4 (≈ 20 µg/mL) | 1.67 |
| COC(=O)NC[C@H]1CN(c2ccc(-n3cc(-c4ccccn4)cn3)c(F)c2)C(=O)O1 | 4 (≈ 9.72 µM) | 4 (≈ 9.72 µM) | 4 (≈ 9.72 µM) | 4 (≈ 9.72 µM) | 4 (≈ 9.72 µM) | 4 (≈ 9.72 µM) | > 32 | > 32 | 306 (≈ 744 µM) | 71 (≈ 173 µM) | 34.1 (≈ 14 µg/mL) | 2.03 |
| CONC(=O)[C@H]1CN(c2ccc(-n3cc(-c4ccccn4)cn3)c(F)c2)C(=O)O1 | 16 (≈ 40.3 µM) | 16 (≈ 40.3 µM) | 16 (≈ 40.3 µM) | 16 (≈ 40.3 µM) | 16 (≈ 40.3 µM) | 16 (≈ 40.3 µM) | > 32 | > 32 | > 400 | > 400 | 78.1 (≈ 31 µg/mL) | ≥ 1.58 |
| CN(CCC#N)C[C@H]1CN(c2ccc(-n3cc(-c4ccccn4)cn3)c(F)c2)C(=O)O1 | > 32 | > 32 | > 32 | > 32 | > 32 | > 32 | > 32 | > 32 | > 400 | > 400 | 64.5 (≈ 27.1 µg/mL) | 1.9 |
| CS(=O)(=O)NC[C@H]1CN(c2ccc(-n3cc(-c4ccccn4)cn3)c(F)c2)C(=O)O1 | > 64 | > 64 | > 64 | > 64 | > 64 | > 64 | > 32 | > 32 | 314 (≈ 728 µM) | > 400 | 2.3 (≈ 0.992 µg/mL) | 1.38 |
| O=C1O[C@@H](CN2CCCCC2)CN1c1ccc(-n2cc(-c3ccccn3)cn2)c(F)c1 | 32 (≈ 75.9 µM) | > 32 | 32 (≈ 75.9 µM) | 32 (≈ 75.9 µM) | 32 (≈ 75.9 µM) | 32 (≈ 75.9 µM) | > 32 | > 32 | > 400 | > 400 | 219 (≈ 92.4 µg/mL) | 3.1 |
| CC(=O)OC[C@H]1CN(c2ccc(-n3cc(-c4ccccn4)cn3)c(F)c2)C(=O)O1 | > 32 | > 32 | > 32 | > 32 | > 32 | > 32 | > 32 | > 32 | > 400 | > 400 | 373 (≈ 148 µg/mL) | 2.09 |
| O=C1O[C@@H](Cn2ccnn2)CN1c1ccc(-n2cc(-c3ccccn3)cn2)c(F)c1 | 4 (≈ 9.87 µM) | 4 (≈ 9.87 µM) | 4 (≈ 9.87 µM) | 4 (≈ 9.87 µM) | 4 (≈ 9.87 µM) | 4 (≈ 9.87 µM) | > 32 | > 32 | 225 (≈ 555 µM) | 49 (≈ 121 µM) | 247 (≈ 100 µg/mL) | 2 |
| O=C1O[C@@H](CSc2cccs2)CN1c1ccc(-n2cc(-c3ccccn3)cn2)c(F)c1 | > 32 | > 32 | > 32 | > 32 | > 32 | > 32 | > 32 | > 32 | > 400 | > 400 | 8.5 (≈ 3.85 µg/mL) | 4.29 |
| CCNC(=O)NC[C@H]1CN(c2ccc(-n3cc(-c4ccccn4)cn3)c(F)c2)C(=O)O1 | 8 (≈ 18.8 µM) | 8 (≈ 18.8 µM) | 8 (≈ 18.8 µM) | 8 (≈ 18.8 µM) | 8 (≈ 18.8 µM) | 8 (≈ 18.8 µM) | > 32 | > 32 | 29 (≈ 68.3 µM) | > 400 | 222 (≈ 94.1 µg/mL) | 2.45 |
